In patent US9290777B2, “Putative cytokinin receptor and methods for use thereof” (NATIONAL UNIVERSITY OF SINGAPORE, priority 2007, dated 2016):
“Also recorded” adds a separate entry of the source.

Assays:
purified TAP-HOG1 [1] = biological target: T1, purified TAP-HOG1 (Arabidopsis thaliana, UniProt O23255); test: biochemical; assay type: binding
T1 construct: Protein A (ProtA part of the TAP tag, TEV site between ProtA and CBP) (N, cleaved yes); made in house; host or cells: transgenic Arabidopsis thaliana harbouring 35S:TAP-HOG1
Experimental: (§1) Cytokinin binding affinity and thermodynamic analysis of the interaction between HOG1 and cytokinins was examined by ITC (MCSITC, Microcal, Northampton, USA). Three naturally occurring cytokinins (zeatin, benzyladenine and isopentenyl adenine) and thidiazuron (an urea-derived synthetic cytokinin) were used. Additionally, adenosine and NAD were used as control molecules to verify the binding specificity of HOG1 to cytokinins. Data were analyzed by MICROCAL ORIGIN version 2.9 using the best-fit, nonlinear least-squares method for one binding site. The binding stoichiometry (n), and association constant (KA) were calculated from the fitted curves. Subsequently, KD was calculated as 1/KA. Raw heat data were corrected to baseline drift obtained from injections of 0.1 μM purified AHP1 into the sample cell containing 2 μM purified TAP-HOG1. Binding isotherms were created by plotting the heat peak areas against the molar ratio of AHP1 added to HOG1.
Cytokinin binding affinity and thermodynamic analysis of the interaction between HOG1 and cytokinins was examined by ITC (MCSITC, Microcal, Northampton, USA). TAP-HOG1 fusion protein was purified using published protocols (Forler et al. supra) from transgenic Arabidopsis plants harboring the 35S:TAP-HOG1 construct. 0.01 μM benzyladenine (a naturally occurring cytokinin) and 0.1 μM of purified TAP-HOG1 protein were used for each ITC assay with 25 injections (each injection of 2 μl at […] intervals at 37° C.). Data were analyzed with MICROCAL ORIGIN version 2.9 using the best-fit, nonlinear least-squares method for one binding site. The binding stoichiometry (n), and association constant (KA) were calculated from the fitted curves. Subsequently, KD was calculated as 1/KA.

[2] = system: HOG1 anti-sense suppression (AS) line 12 plants; test: Exogenous cytokinin spray on HOG1 anti-sense suppression line, phenotype; assay type: in vivo, Arabidopsis thaliana; details: 0.01 μM spray on alternate days over four weeks
Experimental: Three individual seedlings of OE line 6 and AS line 12 were sprayed on alternate days with zeatin or kinetin (0.01 μM), over a period of four weeks. Two WT plants were similarly treated for comparison. […] E) The control OE lines bolt at 4 leaf stage. B) and D) Three individuals of OE line 6 sprayed with zeatin and kinetin respectively, show bolting only after they have reached the 6-7 leaf stage. […] (Note that panels A, B, E and F are in the main FIG. 2 as panels G, H, I and J, and these are included here for ease of comparison only).

[3] = system: tobacco genome in suspension cultures; details: relative to untreated material; cited from earlier work
[4] = biological target: T2, recombinant AHP1 with six-His and thioredoxin tags, expressed in E. coli (Arabidopsis thaliana, UniProt Q9ZNV9 1-154); test: ITC; purified AHP1 injected into a cell containing purified TAP-HOG1
T2 construct: This is the form used in ITC; also called purified AHP1; Arabidopsis histidine phosphotransfer protein 1; not shown: thioredoxin tag and six-His tag from the vector PET32EK/LIC (Novagen)
T2 sequence (looked up): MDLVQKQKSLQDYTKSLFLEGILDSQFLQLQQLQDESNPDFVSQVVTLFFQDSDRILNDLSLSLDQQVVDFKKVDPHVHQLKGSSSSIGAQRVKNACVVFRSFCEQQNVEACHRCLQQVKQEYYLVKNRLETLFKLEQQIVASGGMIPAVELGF
Experimental: C) Purification of TAP-HOG1 complex. […] D) SDS-polyacrylamide gel electrophoresis of recombinant AHP1 purification. AHP1 was expressed with six-His and thioredoxin-tags in *E. coli*. Lane 1 has total cell lysate and purified AHP1 with the tags is in lane 2. E) TAP-HOG1 and AHP1 interaction was performed with ITC.
as §1, with “µM” for “μM”

[5] = system: S-adenosyl homocysteine hydrolase (SAHH) activity; test: SAHH spectrophotometric assay; assay type: biochemical, Arabidopsis thaliana; details: purified protein
purified TAP-HOG1 [6] = biological target: T3, purified TAP-HOG1 (Arabidopsis thaliana, UniProt O23255); test: TAP-HOG1 and AHP1 interaction by ITC; assay type: binding; details: recombinant AHP1 injected into purified TAP-HOG1, read-out: KD (dissociation constant)
T3 construct: Protein A (ProtA part of the TAP tag, TEV site between ProtA and CBP) (N, cleaved yes); made in house; host or cells: TAP-HOG1: transgenic Arabidopsis thaliana (35S:TAP-HOG1); AHP1: E. coli BL21 (PET32EK/LIC)
T3 sequence (O23255 whole entry, looked up): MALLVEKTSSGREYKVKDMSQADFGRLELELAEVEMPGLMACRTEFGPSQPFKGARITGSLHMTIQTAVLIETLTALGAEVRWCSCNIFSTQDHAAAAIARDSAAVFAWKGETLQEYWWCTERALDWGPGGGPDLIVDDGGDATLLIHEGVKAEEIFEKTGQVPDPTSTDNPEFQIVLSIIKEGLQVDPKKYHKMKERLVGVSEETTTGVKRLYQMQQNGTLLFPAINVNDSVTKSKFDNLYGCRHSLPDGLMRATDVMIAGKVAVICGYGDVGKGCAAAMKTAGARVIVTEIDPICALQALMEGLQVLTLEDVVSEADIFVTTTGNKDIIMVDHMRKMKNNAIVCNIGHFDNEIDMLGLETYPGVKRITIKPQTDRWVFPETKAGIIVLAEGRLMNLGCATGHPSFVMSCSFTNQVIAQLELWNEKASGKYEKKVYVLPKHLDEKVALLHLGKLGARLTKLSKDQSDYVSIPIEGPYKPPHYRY
Experimental: as §1
TAP-HOG1 protein complex was purified using the ProtA and CBP tags as described before in Forler et al. (supra). For ProtA pulldown, IgG Sepharose beads (Amersham Biosciences #17-0969-01) and for CBP pulldown Calmodulin affinity resin (Stratagene #214303-52) were used. The purified protein was subjected to SDS-PAGE and blotted to PVDF membranes for Western blot analysis using standard protocols. […]

[7] = ITC, control molecules, purified TAP-HOG1, read-out: KD (dissociation constant)

C/C(=C\CNc1ncnc2[nH]cnc12)CO [zeatin]
Kd (purified TAP-HOG1 [1]): 16.9 to 20.6 nM
phenotype compared with control AS lines [2]: did not show any significant difference in phenotype

c1coc(CNc2ncnc3[nH]cnc23)c1 [kinetin]
phenotype compared with control AS lines [2]: did not show any significant difference in phenotype

NC(=O)c1ccc[n+]([C@@H]2O[C@H](COP(=O)([O-])OP(=O)(O)OC[C@H]3O[C@@H](n4cnc5c(N)ncnc54)[C@H](O)[C@@H]3O)[C@@H](O)[C@H]2O)c1 [NAD+]
Kd (purified TAP-HOG1 [1]; [7]): 39500 nM

O=C(Nc1ccccc1)Nc1cnns1 [thidiazuron]
binding to HOG1 (purified TAP-HOG1 [1]; ITC, performed as with zeatin): does not bind

Nc1ncnc2c1ncn2C[C@H](O)CO [(S)-9-(2,3-dihydroxypropyl)adenine]
decrease of SAM:SAH ratio at which genome hypomethylation occurred [3]: 300 folds

Nc1ncnc2nc[nH]c12 [adenine]
Kd (purified TAP-HOG1 [1]; [7]): 2100 nM

B1: purified TAP-HOG1 protein (HOG1 retaining the CBP portion of the TAP tag, 60 kDa) (receptor, not shown: small tags and cut ends)
chain: MALIVEKTSGGREYKVKDMSQADFGRLELELAEVEMPGLMACRTEFGPAQPFKGARITGSLHMTIQTAVLIETLTALGAEVRWCSCNIFSTQDHAAAAIARDSAAVFAWKGETLQEYWWCTERALDWGPGGGPDLIVDDGGDATLLIHEGVKAEEIFEKTGQVPDPTSTDNPEFQIVLSIIKEGLQVDPKKYHKMKGRLVGVSEETTTGVKRLYQMQESGALLFPAINVNDSVTKSKFDNLYGCRHSLPDGLMRATDVMIAGKVAVICGYGDVGKGCAAAMKTAGARVIVTEIDPICALQAMMEGLQVLTLEDVVSEADIFVTTTGNKDIIMVDHMRKMKNNAIVCNIGHFDNEIDMQGLETFPGVKRITIKPQTDRWVFPDTKSGIIVLAEGRLMNLGCATGHPSFVMSCSFTNQVIAQLELWNEKSSGKYEKKVYVLPKHLDEKVAALHLGKLGAKLTKLTKDQSDYVSIPIEGPYKPPHYRY
notes: Purified from transgenic Arabidopsis thaliana carrying 35S:TAP-HOG1, using the Prot A and CBP tags; After purification it keeps only the CBP portion of the tag (60 kDa; HOG1 alone would be 56 kDa); also called Homology-dependent gene silencing 1
Kd [4]: 23.8 nM

B2: TAP-HOG1: TAP-tagged HOG1 polypeptide (SEQ ID NO: 1) purified from transgenic Arabidopsis thaliana (protein, listed as Arabidopsis thaliana)
chain: MALIVEKTSGGREYKVKDMSQADFGRLELELAEVEMPGLMACRTEFGPAQPFKGARITGSLHMTIQTAVLIETLTALGAEVRWCSCNIFSTQDHAAAAIARDSAAVFAWKGETLQEYWWCTERALDWGPGGGPDLIVDDGGDATLLIHEGVKAEEIFEKTGQVPDPTSTDNPEFQIVLSIIKEGLQVDPKKYHKMKGRLVGVSEETTTGVKRLYQMQESGALLFPAINVNDSVTKSKFDNLYGCRHSLPDGLMRATDVMIAGKVAVICGYGDVGKGCAAAMKTAGARVIVTEIDPICALQAMMEGLQVLTLEDVVSEADIFVTTTGNKDIIMVDHMRKMKNNAIVCNIGHFDNEIDMQGLETFPGVKRITIKPQTDRWVFPDTKSGIIVLAEGRLMNLGCATGHPSFVMSCSFTNQVIAQLELWNEKSSGKYEKKVYVLPKHLDEKVAALHLGKLGAKLTKLTKDQSDYVSIPIEGPYKPPHYRY
modifications: TAP tag; HOG1 Arabidopsis thaliana
SAHH enzyme activity [5]: lacks measurable SAHH activity; also recorded: lacks SAHH enzyme activity

B3: AHP1: recombinant Arabidopsis histidine phosphotransfer protein 1 with six-HIS and thioredoxin tags, expressed in E. coli (protein)
chain: MDLVQKQKSLQDYTKSLFLEGILDSQFLQLQQLQDESNPDFVSQVVTLFFQDSDRILNDLSLSLDQQVVDFKKVDPHVHQLKGSSSSIGAQRVKNACVVFRSFCEQQNVEACHRCLQQVKQEYYLVKNRLETLFKLEQQIVASGGMIPAVELGF
modifications: left off: large carriers
notes: recombinant Arabidopsis histidine phosphotransfer protein 1 with six-HIS and thioredoxin tags, expressed in E. coli
Kd (purified TAP-HOG1 [6]): 23.8 nM
